Columns and labels:
[1] = test system: MB cell lines; assay: AZA treatment, miR-199b-5p expression by real-time PCR; assay type: cell-based; conditions: two cell lines (Med8 and UV238) of a panel of five; 5 μM, 72 h
Description: Five MB cell lines (d283, Daoy, med8a, ons76, uw228) were grown in DMEM supplemented with 10% FBS and antibiotics. Upon reaching 85% confluence, the media was spiked with 5-aza-deoxycytidine (AZA) (Sigma) to a final concentration of 5 μM. Over 72 h the media was replaced daily with fresh AZA-enhanced medium. RNA was extracted using a standard phenol (TRIzol)-chloroform protocol.

[2] = test system: Daoy cell line; assay: DAPT treatment, stem-cell gene expression by real-time PCR; assay type: cell-based, human; conditions: Daoy + DAPT 12 h
Description: Total RNA was extracted from the cell lines using the Trizol reagent (Invitrogen). Synthesis of cDNA from total RNA (4 μg) was performed using a Super Script II First Strand Kit (Invitrogen). Real-time quantitative PCR was performed using standard protocols with an Applied Biosystems ABI PRISM 7900HT Sequence Detection system. To calculate the relative gene expression of the miR-199b-5p precursor, the relative amounts of each pre-miRNA were normalized to U6 miRNA; the other genes were normalized using the β-actin gene. Real-time PCR primers for each gene were designed using Primer Express software version 2.0 (Applied Biosystems). The primer sequences are available upon request.
(§1) N—[N-(3,5-difluorophenacetyl)-l-alanyl]-S-phenylglycine t-butylester (DAPT (Sigma-Aldrich) treatment of the Daoy cells was performed as follows: the cells were plated and allowed to grow overnight in medium containing 10% FBS. The next morning, the medium was replaced with medium containing 10 μM DAPT and replaced each 4 h with this medium. The expression assays was performed after 0, 6, 12, 24 h of treatment […], using control experiments including the corresponding volume of DMSO as vehicle.

[3] = test system: Daoy cell line; assay: DAPT treatment, miR-199b expression by real-time PCR; assay type: cell-based, human; conditions: 10 μM DAPT, 12 h, relative to time 0
Description: The reverse transcriptase (RT) reactions contained 40 ng RNA sample, 50 nM stem-loop RT primer, 1×RT buffer (P/N:4319981, Applied Biosystems), 0.25 mM each of dNTPs, […] MultiScribe RT (P/N: 4319983, Applied Biosystems) and […] RNase inhibitor (P/N: N8080119; Applied Biosystems). The 15 μl reactions were incubated in an Applied Biosystems 9700 Thermocycler for 30 min at 16° C., 30 min at 42° C., 5 min at 85° C., and then held at 4° C.
Real-time PCR was performed using a standard TaqMan PCR kit protocol on an Applied Biosystems 7900HT Sequence Detection System. The 20 μl PCR mix included 2 μl RT product, 10 μl TaqMan Universal PCR Master Mix (Applied Biosystems), […] TaqMan probe. The reactions were incubated in a 96-well plate at 95° C. for 10 min, followed by 60 cycles of 95° C. for 15 s and 60° C. for 1 min.
as §1

[4] = test system: HES1; assay: Western blotting of HES1 protein; assay type: cell-based, human; conditions: Daoy cell line, DAPT 12 h
Description: Thirty μg cytosolic or nuclear lysates were loaded onto 12% polyacrilamide gels, and blotted onto polyvinylidene difluoride membranes (PVDF; BioRad, Milan, Italy). The membranes were then incubated with anti-HES1 (kind gift of Dr. Tetsuo Sudo TORAY Industries, Tebiro Kamakura, Japan), a polyclonal rabbit antibody (1:500), an anti-GSK3-β (B&D Bioscience) monoclonal antibody (1:2500), an anti-c-Myc polyclonal rabbit antibody (1:200) (Santa Cruz Biotechnology, Santa Cruz, Calif., USA), an anti-GABRA6 antibody (Santa Cruz Biotechnology, Santa Cruz, USA) (1:200), an anti-MATH3 antibody (Santa Cruz Biotechnology, Santa Cruz, USA) (1:200) and an anti-cyclin D1 (1:200) polyclonal rabbit antibody (Cell Signaling). An anti-β-actin antibody (1:1.000) (Sigma) was used as the control for equal loading of cytosolic lysates and a polyclonal anti-β-laminin antibody (1:50) (Santa Cruz Biotechnology, Santa Cruz, Calif., USA) for equal loading of nuclear lysates.

## Nc1ncn([C@H]2C[C@H](O)[C@@H](CO)O2)c(=O)n1 [5-aza-deoxycytidine]
[1]
  miR-199b-5p expression: significant up-regulation

## C[C@H](NC(=O)Cc1cc(F)cc(F)c1)C(=O)N[C@H](C(=O)OC(C)(C)C)c1ccccc1 [DAPT, N—[N-(3,5-difluorophenacetyl)-l-alanyl]-S-phenylglycine t-butylester]
[2]
  CD 133 expression 2^-DCt: 0.001237
  HMGA1 expression 2^-DCt: 0.004879
  HMGB3 expression 2^-DCt: 0.005577
  ILF3 expression 2^-DCt: 0.04252
  KLF5 expression 2^-DCt: 0.02368
  MYBL2 expression 2^-DCt: 0.003932
  Nanog expression 2^-DCt: 0.0004488
  Oct4 expression 2^-DCt: 0.0007941
  PDGFR-A expression 2^-DCt: 0.0000015
  PDGFR-B expression 2^-DCt: 0.0000606
  SPARC expression 2^-DCt: 0.07977
  TCF7L1 expression 2^-DCt: 0.0001026
  TEAD4 expression 2^-DCt: 0.005176
  ZIC1 expression 2^-DCt: 0.0002784
  c-Myc expression 2^-DCt: 0.05427
[3]
  increase of miR-199b-5p level: 9 fold
[4]
  HES1 protein (Western blot): down-regulation

From patent publication US9017938B2, “Use of microrna-199b-5p in medical and diagnostic field” (Advanced Accelerator Applications, priority 2009, dated 2015)
